Assay results published in ChEMBL document CHEMBL1201862, “PubChem BioAssay data set” (2004).
The source made the active and inactive calls.

Tests used:
[1] = Vero E6 cell cytotoxicity, dose response, cytotoxicity control for non-replicating M. tuberculosis project, secondary assay (AID 492998); assay type: functional, VeroE6; conditions: Vero C1008
[2] = THP-1 cell cytotoxicity, dose response, cytotoxicity control for non-replicating M. tuberculosis project (AID 489025); assay type: functional
[3] = HepG2 cell cytotoxicity, dose response, cytotoxicity control for non-replicating M. tuberculosis project (AID 489018); assay type: functional; conditions: Mycobacterium tuberculosis
[4] = molecular target: T1, Eukaryotic translation initiation factor 2-alpha kinase 3 (Homo sapiens, UniProt Q9NZJ5); test: Counterscreen assay for PERK inhibitors: Dose response cell-based high throughput screening assay to measure inhibition of PERK at 6 hours. [Related pubchem assays: 1522, 1416 ]; assay type: functional
T1 sequence (Q9NZJ5 whole entry): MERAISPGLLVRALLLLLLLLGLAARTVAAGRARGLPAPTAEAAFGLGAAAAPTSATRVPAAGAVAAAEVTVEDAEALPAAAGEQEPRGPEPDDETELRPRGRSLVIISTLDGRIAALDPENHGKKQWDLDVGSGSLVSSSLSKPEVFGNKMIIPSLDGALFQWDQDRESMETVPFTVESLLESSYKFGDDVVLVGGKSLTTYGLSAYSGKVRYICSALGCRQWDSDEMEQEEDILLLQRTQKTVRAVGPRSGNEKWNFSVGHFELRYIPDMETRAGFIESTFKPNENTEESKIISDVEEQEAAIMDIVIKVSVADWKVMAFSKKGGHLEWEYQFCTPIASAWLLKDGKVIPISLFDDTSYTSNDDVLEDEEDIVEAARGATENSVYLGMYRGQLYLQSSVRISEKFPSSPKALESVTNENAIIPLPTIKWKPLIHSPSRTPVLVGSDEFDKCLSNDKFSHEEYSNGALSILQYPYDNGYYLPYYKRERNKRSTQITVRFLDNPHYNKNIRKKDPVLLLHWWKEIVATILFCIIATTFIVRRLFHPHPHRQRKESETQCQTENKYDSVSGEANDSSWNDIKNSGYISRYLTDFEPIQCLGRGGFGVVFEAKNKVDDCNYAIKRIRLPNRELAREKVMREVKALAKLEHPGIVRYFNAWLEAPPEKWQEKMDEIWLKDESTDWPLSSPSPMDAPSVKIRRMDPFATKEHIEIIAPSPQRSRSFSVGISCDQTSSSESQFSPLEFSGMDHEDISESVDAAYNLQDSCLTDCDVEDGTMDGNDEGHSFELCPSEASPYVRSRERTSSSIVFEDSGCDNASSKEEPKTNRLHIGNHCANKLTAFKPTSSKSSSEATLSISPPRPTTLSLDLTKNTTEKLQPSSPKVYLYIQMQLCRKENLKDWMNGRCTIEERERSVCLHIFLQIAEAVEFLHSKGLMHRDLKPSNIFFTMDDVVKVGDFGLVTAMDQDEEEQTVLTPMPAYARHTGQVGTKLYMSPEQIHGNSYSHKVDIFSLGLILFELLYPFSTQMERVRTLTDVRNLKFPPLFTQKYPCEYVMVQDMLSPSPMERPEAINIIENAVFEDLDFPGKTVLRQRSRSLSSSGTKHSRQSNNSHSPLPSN

[5] = molecular target: T1, Eukaryotic translation initiation factor 2-alpha kinase 3; test: Dose response cell-based high-throughput screening assay to measure PERK inhibition. [Related pubchem assays: 1416 ]; assay type: functional
[6] = molecular target: Eukaryotic translation initiation factor 4H (Homo sapiens, UniProt Q15056); test: eIF4H binding inhibition – biochemical, uHTS, fluorescence polarization, translation initiation inhibitor project, primary screen (AID 2012)
[7] = molecular target: Polyadenylate-binding protein 1 (Homo sapiens, UniProt P11940); test: blockers of PABP interaction with poly(A) – biochemical, fluorescence polarization, […] (AID 2014)
[8] = molecular target: T2, Neuropeptides B/W receptor type 1 (Homo sapiens, UniProt P48145); test: Fluorescence-based dose response cell-based high throughput screening assay to identify antagonists of the G-protein coupled receptor 7 (GPR7). [Related pubchem assays: 1952 (Screening assay (GPR7 antagonists).), 1880 (Summary AID.)]; assay type: functional
T2 sequence (P48145 whole entry): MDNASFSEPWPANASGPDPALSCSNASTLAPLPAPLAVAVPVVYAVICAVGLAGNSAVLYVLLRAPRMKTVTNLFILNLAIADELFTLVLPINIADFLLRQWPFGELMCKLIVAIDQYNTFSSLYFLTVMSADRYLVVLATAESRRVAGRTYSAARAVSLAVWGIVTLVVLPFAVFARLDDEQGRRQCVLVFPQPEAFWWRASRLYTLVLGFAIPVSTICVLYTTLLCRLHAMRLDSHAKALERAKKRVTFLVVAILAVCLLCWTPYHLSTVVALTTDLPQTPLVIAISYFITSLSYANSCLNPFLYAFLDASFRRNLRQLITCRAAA

[9] = molecular target: Melanin-concentrating hormone receptor 1 (Homo sapiens, UniProt Q99705); test: Fluorescence-based counterscreen for antagonists of the G-protein coupled receptor 7 (GPR7): cell-based high throughput dose response assay to identify antagonists of the melanin-concentrating hormone receptor 1 (MCHR1).; assay type: functional
[10] = A cytotoxicity screen of small molecule inhibitors of the PhoP region in Salmonella typhi identified in the primary screen. [Related pubchem assays: 1850, 1864, 1985 ]; assay type: functional

Sequence of Melanin-concentrating hormone receptor 1 (Q99705 whole entry): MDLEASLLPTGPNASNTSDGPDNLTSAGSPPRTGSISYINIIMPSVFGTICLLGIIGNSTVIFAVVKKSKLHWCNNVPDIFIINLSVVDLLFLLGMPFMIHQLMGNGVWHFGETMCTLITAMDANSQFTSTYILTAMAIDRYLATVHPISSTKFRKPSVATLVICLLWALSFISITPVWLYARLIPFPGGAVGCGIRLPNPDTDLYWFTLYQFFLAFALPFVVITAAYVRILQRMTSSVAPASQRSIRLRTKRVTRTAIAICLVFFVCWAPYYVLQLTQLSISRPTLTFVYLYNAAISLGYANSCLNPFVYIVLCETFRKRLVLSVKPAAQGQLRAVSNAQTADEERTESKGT
Sequence of Polyadenylate-binding protein 1 (P11940 whole entry): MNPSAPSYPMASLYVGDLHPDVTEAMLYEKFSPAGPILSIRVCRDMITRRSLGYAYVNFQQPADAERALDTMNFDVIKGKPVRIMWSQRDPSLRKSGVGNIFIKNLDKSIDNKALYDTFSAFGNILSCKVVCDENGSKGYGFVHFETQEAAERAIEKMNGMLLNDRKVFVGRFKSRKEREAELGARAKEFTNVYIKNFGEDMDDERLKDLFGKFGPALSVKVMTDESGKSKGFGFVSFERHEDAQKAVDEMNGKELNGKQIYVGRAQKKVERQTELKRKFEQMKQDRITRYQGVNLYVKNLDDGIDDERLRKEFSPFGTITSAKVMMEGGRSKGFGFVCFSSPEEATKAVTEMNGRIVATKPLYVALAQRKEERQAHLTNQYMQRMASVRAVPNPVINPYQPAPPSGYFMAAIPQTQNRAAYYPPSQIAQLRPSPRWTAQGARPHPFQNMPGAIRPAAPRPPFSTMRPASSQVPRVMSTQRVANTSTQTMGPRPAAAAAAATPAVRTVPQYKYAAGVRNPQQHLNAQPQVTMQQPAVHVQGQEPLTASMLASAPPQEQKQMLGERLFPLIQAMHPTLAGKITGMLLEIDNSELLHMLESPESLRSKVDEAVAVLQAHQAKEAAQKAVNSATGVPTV

## N#Cc1ccsc1NC(=O)c1ccc(Cl)c([N+](=O)[O-])c1
[1]
  CC50: 13.9 µM (active)
[2]
  CC50: 20.9 µM (active)
[3]
  CC50: > 20 µM (active)
[4]
  EC50: > 55.7 µM (not active)
[5]
  EC50: > 55.7 µM (not active)

## CCCC[N+]12C3C[C@H](C4[C@H](O)[C@]5(C[C@@H]41)c1ccccc1N(C)[C@@H]35)[C@H](CC)[C@H]2O (stereo not given in full)
[6]
  IC50: > 100 µM (inactive)
[7]
  IC50: 5.27 µM (active)

## Cc1ccc(NC(Cc2cc(C)no2)c2ccccc2)cc1 (stereo not given)
[8]
  IC50: 9.47 µM (active)
[9]
  IC50: 19.8 µM (not active)

## Cc1cc2cc(CNC(=O)C(C)Oc3ccccc3)ccc2n1C (stereo not given)
[10]
  EC50: > 50 µM (active)
